From ChEMBL document CHEMBL4043141, “Synthesis and biological investigation of tetrahydropyridopyrimidinone derivatives as potential multireceptor atypical antipsychotics” (Bioorg Med Chem, 2017)

How the values were obtained:
in vitro [1] = details: human, liver microsomes
in vitro [2] = details: human, liver microsomes; remark: listed apart in the source

Structure (SMILES) | remaining at 0.5 h, 2 µM (in vitro [1]) [%] | remaining at 1 h, 2 µM (in vitro [2]) [%]
Cc1nc2n(c(=O)c1CCN1CCC(c3noc4cc(F)ccc34)CC1)CCCC2 [RISPERIDONE] | 100 | 75
Cc1nc2n(c(=O)c1CCN1CCC(c3noc4cc(F)ccc34)CC1)CCCC2O (centres undefined) [PALIPERIDONE] | 100 | 100
